In PubChem BioAssay AID1259407 (Chemical Carcinogenesis Research Information System (CCRIS), 2018):
The source made the active and inactive calls. How the calls were made is not given here.

System: CCRIS mutagenicity, Ames/micronucleus/aberration tests
Test: CCRIS mutagenicity studies

With `C1O[C@@H]1[C@@H]1CO1` as the molecule, how does the mutagenic call (Test System: AMES SALMONELLA TYPHIMURIUM, Strain/Indicator: TA1535, Metabolic Activation: RAT, LIVER, S-9, Method: PREINCUBATION) read?
Its mutagenic call is “active; positive”.

What about the mutagenic call (Test System: AMES SALMONELLA TYPHIMURIUM, Strain/Indicator: TA1535, Metabolic Activation: RAT, LIVER, S-9, Method: STANDARD PLATE) of the same molecule?
Its mutagenic call is “active; positive”.

What about the mutagenic call (Test System: AMES SALMONELLA TYPHIMURIUM, Strain/Indicator: TA1537, Metabolic Activation: HAMSTER, LIVER, S-9, AROCLOR 1254, Method: PREINCUBATION) of the same molecule?
The mutagenic call was “inactive; negative”.

And the mutagenic call (Test System: AMES SALMONELLA TYPHIMURIUM, Strain/Indicator: TA1537, Metabolic Activation: HAMSTER, LIVER, S-9, AROCLOR 1254, Method: STANDARD PLATE)?
The mutagenic call was “inactive; negative”.

What about the mutagenic call (Test System: AMES SALMONELLA TYPHIMURIUM, Strain/Indicator: TA1537, Metabolic Activation: HAMSTER, LIVER, S-9, Method: PREINCUBATION) of the same molecule?
The mutagenic call was “inactive; negative”.

And the mutagenic call (Test System: AMES SALMONELLA TYPHIMURIUM, Strain/Indicator: TA1537, Metabolic Activation: HAMSTER, LIVER, S-9, Method: STANDARD PLATE)?
The mutagenic call was “inactive; negative”.

What about the mutagenic call (Test System: AMES SALMONELLA TYPHIMURIUM, Strain/Indicator: TA1537, Metabolic Activation: MOUSE, LIVER, S-9, AROCLOR 1254, Method: PREINCUBATION) of the same molecule?
Its mutagenic call is “inactive; negative”.

And the mutagenic call (Test System: AMES SALMONELLA TYPHIMURIUM, Strain/Indicator: TA1537, Metabolic Activation: MOUSE, LIVER, S-9, AROCLOR 1254, Method: STANDARD PLATE)?
The mutagenic call was “inactive; negative”.

What about the mutagenic call (Test System: AMES SALMONELLA TYPHIMURIUM, Strain/Indicator: TA1537, Metabolic Activation: MOUSE, LIVER, S-9, Method: PREINCUBATION) of the same molecule?
Its mutagenic call is “inactive; negative”.

What about the mutagenic call (Test System: AMES SALMONELLA TYPHIMURIUM, Strain/Indicator: TA1537, Metabolic Activation: MOUSE, LIVER, S-9, Method: STANDARD PLATE) of the same molecule?
The mutagenic call was “inactive; negative”.

And the mutagenic call (Test System: AMES SALMONELLA TYPHIMURIUM, Strain/Indicator: TA1537, Metabolic Activation: NONE, Method: PREINCUBATION)?
The mutagenic call was “inactive; negative”.

What about the mutagenic call (Test System: AMES SALMONELLA TYPHIMURIUM, Strain/Indicator: TA1537, Metabolic Activation: NONE, Method: STANDARD PLATE) of the same molecule?
Its mutagenic call is “inactive; negative”.

What about the mutagenic call (Test System: AMES SALMONELLA TYPHIMURIUM, Strain/Indicator: TA1537, Metabolic Activation: RAT, LIVER, S-9, AROCLOR 1254, Method: PREINCUBATION) of the same molecule?
Its mutagenic call is “inactive; negative”.

What about the mutagenic call (Test System: AMES SALMONELLA TYPHIMURIUM, Strain/Indicator: TA1537, Metabolic Activation: RAT, LIVER, S-9, Method: PREINCUBATION) of the same molecule?
The mutagenic call was “inactive; negative”.

And the mutagenic call (Test System: AMES SALMONELLA TYPHIMURIUM, Strain/Indicator: TA1537, Metabolic Activation: RAT, LIVER, S-9, Method: STANDARD PLATE)?
The mutagenic call was “inactive; negative”.

What about the mutagenic call (Test System: AMES SALMONELLA TYPHIMURIUM, Strain/Indicator: TA1538, Metabolic Activation: HAMSTER, LIVER, S-9, AROCLOR 1254, Method: PREINCUBATION) of the same molecule?
The mutagenic call was “inactive; negative”.

What about the mutagenic call (Test System: AMES SALMONELLA TYPHIMURIUM, Strain/Indicator: TA1538, Metabolic Activation: HAMSTER, LIVER, S-9, AROCLOR 1254, Method: STANDARD PLATE) of the same molecule?
Its mutagenic call is “inactive; negative”.

And the mutagenic call (Test System: AMES SALMONELLA TYPHIMURIUM, Strain/Indicator: TA1538, Metabolic Activation: HAMSTER, LIVER, S-9, Method: PREINCUBATION)?
Its mutagenic call is “inactive; negative”.

And the mutagenic call (Test System: AMES SALMONELLA TYPHIMURIUM, Strain/Indicator: TA1538, Metabolic Activation: HAMSTER, LIVER, S-9, Method: STANDARD PLATE)?
The mutagenic call was “inactive; negative”.

What about the mutagenic call (Test System: AMES SALMONELLA TYPHIMURIUM, Strain/Indicator: TA1538, Metabolic Activation: MOUSE, LIVER, S-9, AROCLOR 1254, Method: PREINCUBATION) of the same molecule?
Its mutagenic call is “inactive; negative”.

And the mutagenic call (Test System: AMES SALMONELLA TYPHIMURIUM, Strain/Indicator: TA1538, Metabolic Activation: MOUSE, LIVER, S-9, AROCLOR 1254, Method: STANDARD PLATE)?
Its mutagenic call is “inactive; negative”.

What about the mutagenic call (Test System: AMES SALMONELLA TYPHIMURIUM, Strain/Indicator: TA1538, Metabolic Activation: MOUSE, LIVER, S-9, Method: PREINCUBATION) of the same molecule?
The mutagenic call was “inactive; negative”.

What about the mutagenic call (Test System: AMES SALMONELLA TYPHIMURIUM, Strain/Indicator: TA1538, Metabolic Activation: MOUSE, LIVER, S-9, Method: STANDARD PLATE) of the same molecule?
The mutagenic call was “inactive; negative”.

What about the mutagenic call (Test System: AMES SALMONELLA TYPHIMURIUM, Strain/Indicator: TA1538, Metabolic Activation: NONE, Method: PREINCUBATION) of the same molecule?
The mutagenic call was “inactive; negative”.

And the mutagenic call (Test System: AMES SALMONELLA TYPHIMURIUM, Strain/Indicator: TA1538, Metabolic Activation: NONE, Method: STANDARD PLATE)?
Its mutagenic call is “inactive; negative”.

And the mutagenic call (Test System: AMES SALMONELLA TYPHIMURIUM, Strain/Indicator: TA1538, Metabolic Activation: RAT, LIVER, S-9, AROCLOR 1254, Method: PREINCUBATION)?
The mutagenic call was “inactive; negative”.

What about the mutagenic call (Test System: AMES SALMONELLA TYPHIMURIUM, Strain/Indicator: TA1538, Metabolic Activation: RAT, LIVER, S-9, Method: PREINCUBATION) of the same molecule?
The mutagenic call was “inactive; negative”.

And the mutagenic call (Test System: AMES SALMONELLA TYPHIMURIUM, Strain/Indicator: TA1538, Metabolic Activation: RAT, LIVER, S-9, Method: STANDARD PLATE)?
Its mutagenic call is “inactive; negative”.

What about the mutagenic call (Test System: E. COLI, Strain/Indicator: WP2 UVRA, Metabolic Activation: HAMSTER, LIVER, S-9, AROCLOR 1254, Method: STANDARD PLATE) of the same molecule?
The mutagenic call was “inactive; negative”.

What about the mutagenic call (Test System: E. COLI, Strain/Indicator: WP2 UVRA, Metabolic Activation: HAMSTER, LIVER, S-9, Method: PREINCUBATION) of the same molecule?
Its mutagenic call is “inactive; negative”.

And the mutagenic call (Test System: E. COLI, Strain/Indicator: WP2 UVRA, Metabolic Activation: MOUSE, LIVER, S-9, AROCLOR 1254, Method: STANDARD PLATE)?
Its mutagenic call is “inactive; negative”.

And the mutagenic call (Test System: E. COLI, Strain/Indicator: WP2 UVRA, Metabolic Activation: MOUSE, LIVER, S-9, Method: STANDARD PLATE)?
The mutagenic call was “inactive; negative”.

What about the mutagenic call (Test System: E. COLI, Strain/Indicator: WP2 UVRA, Metabolic Activation: NONE, Method: STANDARD PLATE) of the same molecule?
The mutagenic call was “inactive; negative”.

And the mutagenic call (Test System: E. COLI, Strain/Indicator: WP2 UVRA, Metabolic Activation: RAT, LIVER, S-9, AROCLOR 1254, Method: PREINCUBATION)?
The mutagenic call was “inactive; negative”.

What about the mutagenic call (Test System: E. COLI, Strain/Indicator: WP2 UVRA, Metabolic Activation: RAT, LIVER, S-9, Method: PREINCUBATION) of the same molecule?
Its mutagenic call is “inactive; negative”.

What about the mutagenic call (Test System: E. COLI, Strain/Indicator: WP2 UVRA, Metabolic Activation: RAT, LIVER, S-9, Method: STANDARD PLATE) of the same molecule?
The mutagenic call was “inactive; negative”.
